The numbers were not newly measured in patent US20110287437A1, “ASSAYS TO PREDICT CARDIOTOXICITY” (priority 2010, published 2011), which cites them from elsewhere.

For data set [1] the following is noted: assessment from public literature and internal data; training set N=19.
For data set [2] the following is noted: treatment of patients; prescribing information.

Consider `COc1cc2c(Nc3ccc(Br)cc3F)ncnc2cc1OCC1CCN(C)CC1` [Zactima], for which the Cardiotoxicity result in data set [1] is given as “Positive”.

For bevacizumab: bevacizumab (Avastin), the “Cardiotoxicity / adverse cardiac effects reported” value in data set [2] is listed as “mentioned in the prescribing information”. In the case of `Cc1nc(Nc2ncc(C(=O)Nc3c(C)cccc3Cl)s2)cc(N2CCN(CCO)CC2)n1` [Sprycel, dasatinib], the Cardiotoxicity entry in data set [1] is reported as “Positive”. Also, the “Cardiotoxicity / adverse cardiac effects reported” value in data set [2] is listed as “mentioned in the prescribing information”. With `COc1ccc2c(O[C@@H]3C[C@H]4C(=O)N[C@]5(C(=O)O)C[C@H]5/C=C\CCCCC[C@H](NC(=O)OC5CCCC5)C(=O)N4C3)cc(-c3csc(NC(C)C)n3)nc2c1` [BILN 2061], in data set [1], the Cardiotoxicity entry is reported as “Positive”. Take `CS(=O)(=O)CCNCc1ccc(-c2ccc3ncnc(Nc4ccc(OCc5cccc(F)c5)c(Cl)c4)c3c2)o1` [Tykerb]: the Cardiotoxicity result in data set [1] was “Negative”. `CO[C@H]1C[C@@H]2CC[C@@H](C)[C@@](O)(O2)C(=O)C(=O)N2CCCC[C@H]2C(=O)O[C@H]([C@H](C)C[C@@H]2CC[C@@H](OCCO)[C@H](OC)C2)CC(=O)[C@H](C)/C=C(\C)[C@@H](O)[C@@H](OC)C(=O)[C@H](C)C[C@H](C)/C=C/C=C/C=C/1C` [Everolimus]: in data set [1], the Cardiotoxicity entry was “Positive”. As for `COc1cccc2c1C(=O)c1c(O)c3c(c(O)c1C2=O)C[C@@](O)(C(=O)CO)C[C@@H]3O[C@H]1C[C@H](N)[C@H](O)[C@H](C)O1` [Doxorubicin], the Cardiotoxicity result in data set [1] is recorded as “Positive”. As for `COc1cc2ncnc(Nc3ccc(F)c(Cl)c3)c2cc1OCCCN1CCOCC1` [Iressa], in data set [1], the Cardiotoxicity entry is reported as “Negative”. For the compound `CCN(CC)CCNC(=O)c1c(C)[nH]c(/C=C2\C(=O)Nc3ccc(F)cc32)c1C` [Sutent, sunitinib], the Cardiotoxicity entry in data set [1] is listed as “Positive”. In addition, the “Cardiotoxicity / adverse cardiac effects reported” value in data set [2] is on record as “mentioned in the prescribing information”. In the case of `Cc1cn(-c2cc(NC(=O)c3ccc(C)c(Nc4nccc(-c5cccnc5)n4)c3)cc(C(F)(F)F)c2)cn1` [Nilotinib], the Cardiotoxicity result in data set [1] is “Positive”.

`C#Cc1cccc(Nc2ncnc3cc(OCCOC)c(OCCOC)cc23)c1` [Tarceva]: the Cardiotoxicity entry in data set [1] is “Negative”. Regarding `CNC(=O)c1cc(Oc2ccc(NC(=O)Nc3ccc(Cl)c(C(F)(F)F)c3)cc2)ccn1` [Nexavar, sorafenib], the Cardiotoxicity result in data set [1] is listed as “Positive”. In addition, the “Cardiotoxicity / adverse cardiac effects reported” value in data set [2] is given as “mentioned in the prescribing information”.
